# Patent US7294463B2, “Method of screening for compounds that modulate activity of a regulatory sequence of the β-2 subunit of a neuronal nicotinic acetylcholine receptor” (Institut Pasteur, priority 1994, dated 2007)
# Read-outs that look alike come from different tables or passages of the source.
# Assays:
# [1] = system: nuclear extracts from neuroblastomas or fibroblasts; test: Gel shift assay, competition against 32P labelled E-D probe; type: binding; conditions: excess of unlabelled competitor
# Excerpt: FIG. 7: Gel shift experiment. Autoradiogram of the mobility shift experiment. The probe used was a ^32P labelled double stranded E-D oligonucleotide. This oligonucleotide carries only the E-Box/Dyad element, whereas the oligonucleotide S-E carries the Sp1 binding site as well as the E-Box/Dyad element. The competitor oligonucleotides were used in 10- and 100-fold molar excess, except for S-E that was used only in 100-fold molar excess.
# Oligonucleotides were labeled either with Y[^32P]ATP and T4 polynucleotide kinase, or with ∝[^32P]CTP and Klenow enzyme as in Current Protocols in Molecular Biology. Nuclear extracts were prepared from ˜10^7 cells as described (Bessis et al., 1993). For binding, […] of labeled oligonucleotide was mixed with 0.5 μg of protein extract in 10 mM Hepes pH 8, 10% glycerol], 0.1 mM EDTA, 0.1 M NaCl, 2 mM DTT, 0.1 mg/ml BSA, 4 mM MgCl2, 4 mM spermidine, 1 mM PMSF, 1 μg polydldC in 20 μl. The reaction was incubated for 10 minutes on ice. The DNA-protein complexes were then analyzed on a 7% polyacrylamide gel.
# To further understand the role of the E-Box in the regulation of the promoter, we investigated the protein complexes able to interact with this sequence. Gel shift assays were performed using the 33 bp sequence (nt-135 to -103, oligonucleotide E-D) as a probe. […]
# [2] = system: neurons of the anterior thalamus; type: cell-based, mouse
# Description: (§1) METHODS, Coronal slices were obtained from the thalamus of 8-12 day old mice using a Dosaka slicer in ice cold ACSF medium (125 mM NaCl/26 mM NaHCO3/25 mM Glucose/1.25 mM NaH2PO4/2.5 mM KCl 2.5/2 mM CaCl2/1 mM MgCl2 pH 7.3). Slices were maintained in the same medium for 1-8 hours. Cells in slices were visualized through a Zeiss microscope. Whole cell recordings were obtained with 2-4 MOhm hard-glass pipettes containing 150 mM CsCl/10 mM EGTA/10 mM HEPES/4 mM di-sodium ATP/4 mM MgCl2 pH adjusted to 7.3 with KOH. Five to ten sec. pulses of drug were applied rapidly to the cell through a […] pipette above the slice, fed by gravity with a solution containing 150 mM NaCl/10 mM Hepes/2.5 mM KCl/2 mM CaCl2/1 mM MgCl2. Recordings were made in the presence of CNQX (5 μM) and of the GABAA antagonist SR-95531 (10 μM). Currents were recorded with an Axopatch ID (Axon Instrument) patch amplifier, digitized on a Compaq PC and further analyzed with the PClamp program (Axon Instrument).
# [3] = system: neurons in the MHb; test: Patch clamp recording of nicotine evoked currents, medial habenula (MHb); type: cell-based, mouse; conditions: for Agonist potency rank order: wild type
# Description: as §1
# [4] = system: β2−/− mice and their wildtype siblings
# Description: METHODS, Passive avoidance test was performed as described in the text, according to Nordberg and Bergh^20 and Faiman et al^20. Nicotine (bitartrate, Sigma) was freshly dissolved in PBS. IP injection of the same volume of either nicotine or vehicle immediately followed footshock during the training trial.
# Retention of an inhibitory avoidance response was assessed using the passive avoidance test, which was also chosen for its pharmacological sensitivity to nicotine administration ^19,20. This test consisted of a training trial in which the mouse was placed in a well-lighted chamber of a shuttle box, and the latency to enter the adjacent dark chamber was measured. Upon entry to the dark chamber, a mild, inescapable foot shock was delivered, and vehicle or nicotine (10 μg/kg) was injected into the mouse. Twenty-four (24) hours later, retention was assessed by measuring the latency to enter the dark chamber.
# [5] = target: high affinity nAChR (Mus musculus, UniProt O70174+Q9ERK7); conditions: 3H-nicotine 4 nM, all brain areas of β2+/− mice
# Description: (§2) Following incubation, sections were rinsed 2×2 min. in ice cold PBS and briefly rinsed in ice cold water. Slides were exposed for 60 days to Hyperfilm ^3H.
# [6] = system: high affinity nAChR; conditions: 3H-nicotine 4 nM, brain sections of β2−/− mice
# Description: as §2
# [7] = target: high affinity sites; conditions: read-out: KD of high affinity sites; equilibrium binding experiments; cited from earlier work
# Sequence of high affinity nAChR (Mus musculus, UniProt O70174+Q9ERK7) (Q9ERK7 26-501): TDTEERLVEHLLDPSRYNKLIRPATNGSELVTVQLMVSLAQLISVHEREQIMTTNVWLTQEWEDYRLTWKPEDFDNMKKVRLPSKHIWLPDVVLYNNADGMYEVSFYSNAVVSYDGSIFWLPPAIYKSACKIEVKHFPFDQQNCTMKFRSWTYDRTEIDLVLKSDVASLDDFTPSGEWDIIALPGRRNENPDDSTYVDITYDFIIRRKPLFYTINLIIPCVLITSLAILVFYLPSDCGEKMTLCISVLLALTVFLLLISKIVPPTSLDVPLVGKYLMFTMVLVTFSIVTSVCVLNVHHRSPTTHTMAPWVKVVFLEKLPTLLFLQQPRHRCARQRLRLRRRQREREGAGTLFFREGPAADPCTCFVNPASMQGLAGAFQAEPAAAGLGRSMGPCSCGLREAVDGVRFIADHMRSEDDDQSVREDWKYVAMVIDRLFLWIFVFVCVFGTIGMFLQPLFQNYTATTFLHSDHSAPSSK
# Sequence of high affinity nAChR (Mus musculus, UniProt O70174+Q9ERK7) (O70174 31-629): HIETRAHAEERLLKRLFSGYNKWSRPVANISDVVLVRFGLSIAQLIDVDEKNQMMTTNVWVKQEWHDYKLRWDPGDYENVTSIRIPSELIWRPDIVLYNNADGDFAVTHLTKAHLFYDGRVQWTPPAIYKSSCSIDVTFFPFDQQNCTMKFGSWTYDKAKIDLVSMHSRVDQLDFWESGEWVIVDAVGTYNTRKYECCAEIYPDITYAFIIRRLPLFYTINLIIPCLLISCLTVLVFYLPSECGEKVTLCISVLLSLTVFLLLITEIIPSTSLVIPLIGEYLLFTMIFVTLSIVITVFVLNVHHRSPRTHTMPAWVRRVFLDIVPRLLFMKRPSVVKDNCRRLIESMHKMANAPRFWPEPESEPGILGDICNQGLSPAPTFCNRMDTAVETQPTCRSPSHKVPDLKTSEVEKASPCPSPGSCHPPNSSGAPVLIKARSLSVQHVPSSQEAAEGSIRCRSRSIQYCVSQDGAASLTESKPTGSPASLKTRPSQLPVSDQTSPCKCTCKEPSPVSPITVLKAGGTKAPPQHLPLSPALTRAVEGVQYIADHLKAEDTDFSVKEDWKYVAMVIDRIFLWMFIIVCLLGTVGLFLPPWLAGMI
compound,measurement,setting,value
5′-CCTCCCCTAGTAGTTCCTCAGGTGTTCCCTAGA [Mut.E],Competition for complexes formed with labelled E-D probe,[1],no competition
5′-TCCTCCCCTAGTAGTTCCACTTGTGTTCCCTAG [E-D],Competition for complexes formed with labelled E-D probe,[1],fully displaced
C[N+]1(C)CCN(c2ccccc2)CC1 [DMPP],Agonist order of the response,"[2]; wild type, anterior thalamus",nicotine>DMPP>cytisine
same,Agonist potency rank order,[3]; MHb,cytisine=nicotine>DMPP
O=c1cccc2n1C[C@@H]1CNC[C@H]2C1 [cytisine],Agonist order of the response,[2],nicotine>DMPP>cytisine
same,Agonist potency rank order,[3]; MHb,cytisine=nicotine>DMPP
CO[C@H]1CC=C2CCN3CCC4=C(CC(=O)OC4)[C@]23C1 [dihydro-β-erythroidine],Effect on the nicotine evoked inward current,"[2]; 1 μM antagonist, 10 μM nicotine, wild type",blocked
CN1CCCC1c1cccnc1 (stereo not shown) [nicotine],Average inward current,"[2]; 10 μM nicotine, wild type animals",155+/−73 pA
same,Dose required for a reproducible response,[2]; anterior thalamic neurons,1 µM
same,Agonist order of the response,"[2]; wild type, anterior thalamus",nicotine>DMPP>cytisine
same,Response of anterior thalamic neurons to nicotine,"[2]; β2−/− mice, 100% of neurons tested",completely abolished
same,Response of cells in the MHb to nicotine,[3]; mutant mice,maintained
same,Average inward current,"[3]; wild type mice, MHb",505+/−132 pA
same,Agonist potency rank order,[3]; MHb,cytisine=nicotine>DMPP
same,Upward shift of retention latency curve,"[4]; nicotine 10 μg/kg IP post-training, retention after 24 hours, wild type mice, p<0.01",approximately 80 sec
same,Effect of nicotine administration on retention,"[4]; nicotine 10 μg/kg, mutant (β2−/−) mice",completely ineffective
same,Reduction of nicotine binding in situ,[5],approximately 50%
same,Nicotine binding in situ,[6],completely abolished
same,Kd,[7],~10 nM
